What was measured:
[1] = test system: EKVX; assay: NCI-60 five-dose assay; assay type: cell-based, human; conditions: Homo sapiens
Procedure: (§1) A number of our most promising compounds identified through preliminary cell viability testing (23c, 23d, 23f, 23h, 23l, 23m, 23n, 23o, 24f, 24l, 25n and 26n) were selected for NCI drug screening in the 60-cell-line panel. The panel includes nine subcategories based on cancer tissue types, which include leukemia, ovarian, central nervous system, breast, lung, prostate, skin, renal and colon cancer. The compounds were initially assessed in a one-dose assay at a fixed treatment concentration of 10 µM. The compounds selected for further investigation were progressed to a five-dose assay across the concentration ranges of 0.01, 0.1, 1, 10 and 100 µM [72]. The endpoints assessed in the screening protocol were GI50, TGI and LC50 [72].

[2] = test system: NCI-H460; assay: NCI-60 five-dose assay; assay type: cell-based, human; conditions: Homo sapiens
Procedure: as §1

[3] = test system: NCI-H23; assay: NCI-60 five-dose assay; assay type: cell-based, human; conditions: Homo sapiens
Procedure: as §1

[4] = test system: KM12; assay: NCI-60 five-dose assay; assay type: cell-based, human; conditions: Homo sapiens
Procedure: as §1

[5] = test system: MCF-7; assay: NCI-60 five-dose assay; assay type: cell-based, human; conditions: Homo sapiens, MCF7
Procedure: as §1

[6] = test system: PC-3; assay: NCI-60 five-dose assay; assay type: cell-based, human; conditions: Homo sapiens
Procedure: as §1

[7] = test system: SN12C; assay: NCI-60 five-dose assay; assay type: cell-based, human; conditions: Homo sapiens
Procedure: as §1

[8] = test system: SF-268; assay: NCI-60 five-dose assay; assay type: cell-based, human; conditions: Homo sapiens
Procedure: as §1

[9] = test system: LOX IMV1; assay: NCI-60 five-dose assay; assay type: cell-based, human; conditions: Homo sapiens
Procedure: as §1

[10] = test system: CAKI-1; assay: NCI-60 five-dose assay; assay type: cell-based, human; conditions: Homo sapiens
Procedure: as §1

[11] = test system: SW-620; assay: NCI-60 five-dose assay; assay type: cell-based, human; conditions: Homo sapiens
Procedure: as §1

[12] = test system: OVCAR-8; assay: NCI-60 five-dose assay; assay type: cell-based, human; conditions: Homo sapiens
Procedure: as §1

[13] = test system: 786-0; assay: NCI-60 five-dose assay; assay type: cell-based, human; conditions: Homo sapiens
Procedure: as §1

[14] = test system: HT29; assay: NCI-60 five-dose assay; assay type: cell-based, human; conditions: Homo sapiens, HT-29; HT29
Procedure: as §1

[15] = test system: NCI-H226; assay: NCI-60 five-dose assay; assay type: cell-based, human; conditions: Homo sapiens
Procedure: as §1

[16] = test system: OVCAR-4; assay: NCI-60 five-dose assay; assay type: cell-based, human; conditions: Homo sapiens
Procedure: as §1

[17] = test system: NCI-H332M; assay: NCI-60 five-dose assay; assay type: cell-based, human; conditions: Homo sapiens
Procedure: as §1

[18] = test system: SNB-19; assay: NCI-60 five-dose assay; assay type: cell-based, human; conditions: Homo sapiens
Procedure: as §1

[19] = test system: IGROV1; assay: NCI-60 five-dose assay; assay type: cell-based, human; conditions: Homo sapiens, IGROV-1
Procedure: as §1

[20] = test system: TK-10; assay: NCI-60 five-dose assay; assay type: cell-based, human; conditions: Homo sapiens
Procedure: as §1

[21] = test system: HCT-15; assay: NCI-60 five-dose assay; assay type: cell-based, human; conditions: Homo sapiens
Procedure: as §1

[22] = test system: DU-145; assay: NCI-60 five-dose assay; assay type: cell-based, human; conditions: Homo sapiens
Procedure: as §1

[23] = test system: HS 578T; assay: NCI-60 five-dose assay; assay type: cell-based, human; conditions: Homo sapiens
Procedure: as §1

[24] = test system: SK-OV-3; assay: NCI-60 five-dose assay; assay type: cell-based, human; conditions: Homo sapiens
Procedure: as §1

[25] = test system: OVCAR-5; assay: NCI-60 five-dose assay; assay type: cell-based, human; conditions: Homo sapiens
Procedure: as §1

[26] = test system: A549/ATCC; assay: NCI-60 five-dose assay; assay type: cell-based, human; conditions: Homo sapiens
Procedure: as §1

[27] = test system: SK-MEL-2; assay: NCI-60 five-dose assay; assay type: cell-based, human; conditions: Homo sapiens
Procedure: as §1

[28] = test system: ACHN; assay: NCI-60 five-dose assay; assay type: cell-based, human; conditions: Homo sapiens
Procedure: as §1

[29] = test system: HCT-116; assay: NCI-60 five-dose assay; assay type: cell-based, human; conditions: Homo sapiens
Procedure: as §1

[30] = test system: U251; assay: NCI-60 five-dose assay; assay type: cell-based, human; conditions: Homo sapiens, U-251
Procedure: as §1

[31] = test system: M14; assay: NCI-60 five-dose assay; assay type: cell-based, human; conditions: Homo sapiens
Procedure: as §1

[32] = test system: COLO205; assay: NCI-60 five-dose assay; assay type: cell-based, human; conditions: Homo sapiens, COLO 205
Procedure: as §1

[33] = test system: MDA-MB-231/ATCC; assay: NCI-60 five-dose assay; assay type: cell-based, human; conditions: Homo sapiens
Procedure: as §1

[34] = test system: MDA-MB-468; assay: NCI-60 five-dose assay; assay type: cell-based, human; conditions: Homo sapiens
Procedure: as §1

[35] = test system: UO-31; assay: NCI-60 five-dose assay; assay type: cell-based, human; conditions: Homo sapiens
Procedure: as §1

[36] = test system: OVCAR-3; assay: NCI-60 five-dose assay; assay type: cell-based, human; conditions: Homo sapiens
Procedure: as §1

[37] = test system: SF539; assay: NCI-60 five-dose assay; assay type: cell-based, human; conditions: Homo sapiens, SF-539
Procedure: as §1

[38] = test system: BT-549; assay: NCI-60 five-dose assay; assay type: cell-based, human; conditions: Homo sapiens
Procedure: as §1

[39] = test system: UACC-257; assay: NCI-60 five-dose assay; assay type: cell-based, human; conditions: Homo sapiens
Procedure: as §1

[40] = test system: MDA-MB-435; assay: NCI-60 five-dose assay; assay type: cell-based, human; conditions: Homo sapiens
Procedure: as §1

[41] = test system: MALME-3M; assay: NCI-60 five-dose assay; assay type: cell-based, human; conditions: Homo sapiens, Malme-3M
Procedure: as §1

[42] = test system: MOLT-4; assay: NCI-60 five-dose assay; assay type: cell-based, human
[43] = test system: HG-3 and PGA-1 cell lines; assay: alamarBlue cell viability assay, mean of both CLL cell lines; assay type: cell-based, human; conditions: Homo sapiens, CLL cell; mean of HG-3 and PGA-1
[44] = test system: HG-3 cells; assay: alamarBlue cell viability assay; conditions: Homo sapiens, HG-3, 24 h; for IC50: read-out: HG-3 IC50
[45] = test system: NCI 60 cancer cell line panel; assay: NCI-60 five-dose assay, full-panel means; assay type: cell-based; conditions: mean over NCI 60 cell line panel
Procedure: as §1

[46] = test system: breast cancer cell lines; assay: NCI-60 five-dose assay, breast cancer cell lines; assay type: cell-based, human; conditions: Homo sapiens; range over breast cancer cell lines
Procedure: as §1

[47] = test system: RPMI-8226; assay: NCI-60 five-dose assay; assay type: cell-based, human
[48] = test system: melanoma cell lines; assay: NCI-60 five-dose assay, melanoma cell lines; assay type: cell-based, human; conditions: Homo sapiens; range over melanoma cell lines
Procedure: as §1

Compound: O=C(/C=C/C12c3ccccc3C(c3ccccc31)C1C(=O)NC(=O)C12)c1ccc(F)cc1 (racemic) [Compound 23h]
- GI50 [1]: 1.85 µM
- GI50 [2]: 1.64 µM
- GI50 [3]: 2.61 µM
- GI50 [4]: 2.18 µM
- GI50 [5]: 0.885 µM
- GI50 [6]: 1.42 µM
- GI50 [7]: 2.34 µM
- GI50 [8]: 4.56 µM
- GI50 [9]: 1.65 µM
- GI50 [10]: 1.02 µM
- GI50 [11]: 2.27 µM
- GI50 [12]: 1.43 µM
- GI50 [13]: 2.44 µM
- GI50 [14]: 1.86 µM
- GI50 [15]: 2.04 µM
- GI50 [16]: 1.96 µM
- GI50 [17]: 2.64 µM
- GI50 [18]: 2.68 µM
- GI50 [19]: 2.1 µM
- GI50 [20]: 3.18 µM
- GI50 [21]: 1.19 µM
- GI50 [22]: 1.77 µM
- GI50 [23]: 1.82 µM
- GI50 [24]: 5.28 µM
- GI50 [25]: 1.6 µM
- GI50 [26]: 2.37 µM
- GI50 [27]: 2.48 µM
- GI50 [28]: 1.39 µM
- GI50 [29]: 0.537 µM
- GI50 [30]: 1.84 µM
- GI50 [31]: 2.14 µM
- GI50 [32]: 1.79 µM
- GI50 [33]: 1.64 µM
- GI50 [34]: 1.88 µM
- GI50 [35]: 1.12 µM
- GI50 [36]: 1.44 µM
- GI50 [37]: 1.69 µM
- GI50 [38]: 1.37 µM
- GI50 [39]: 2.13 µM
- GI50 [40]: 1.93 µM
- GI50 [41]: 1.6 µM
- GI50 ([42]; Homo sapiens, MOLT-4, MOLT-4): 0.46 µM
- GI50 ([42]; MOLT-4): 0.759 µM
- IC50 [43]: 3.77 µM
- IC50 [44]: 4.65 µM
- GI50 ([45]; Homo sapiens, read-out: Mean GI50 (MID GI50, full-panel mean-graph mid-point)): 1.7 µM
- CC50 ([45]; Homo sapiens, read-out: Mean LC50 (MID LC50)): 14.5 µM
- Mean TGI (MID TGI, total growth inhibition) [45]: 4.265 µM
- GI50 [46]: 0.885 to 1.88 µM
- GI50 ([47]; Homo sapiens, RPMI-8226, RPMI-8226): 1.62 µM
- GI50 ([47]; RPMI-8226): 1.16 µM
- GI50 [48]: 1.6 to 2.48 µM

Compound: O=C(C=CC12c3ccccc3C(c3ccccc31)C1C(=O)NC(=O)C12)c1ccc(Br)cc1 (stereo not shown) [Compound 23a, 9-(E)-3-(4-Bromophenyl)-3-oxoprop-1-en-1-yl)-9,10-dihydro-9,10-[3,4]epipyrroloanthracene-12,14-dione]
- IC50 [43]: 2.33 µM
- IC50 [44]: 2.69 µM
- viability at 10 µM ([44]; read-out: cell viability, HG-3, 10 µM, 24 h, vehicle = 100%): 0.5%
